The results in this text go back to patent publication US20250084097A1, “MACROCYCLIC AMIDE COMPOUNDS AND APPLICATION THEREOF” (Medshine Discovery Inc., priority 2021, published 2025).

Each structure is given as a SMILES string. Read-outs that look alike come from different tables or passages of the source.

The test system of experiment [1] is Ba/F3-FL-EGFR(L858R/T790M/C797S) phosphorylation. The experiment in a line: Inhibition of EGFR phosphorylation in cells, Western Blot. The class given is cell-based. The note with it: p-EGFR, 4 h incubation, read-out: Cell half-maximal inhibition concentration IC50 Ba/F3-FL-EGFR(L858R/T790M/C797S). From the text:
Autophosphorylation of EGFR can activate its intracellular kinase pathway. In this assay, EGFR phosphorylation was quantified in order to detect the inhibitory effect of compounds on Ba/F3-FL-EGFR(L858R/T790M/C797S) and Ba/F3-FL-EGFR (del19-E746-A750/T790M/C797S) phosphorylation.
The cells in the logarithmic growth phase were taken and counted with a cell counter. The cell viability rate was required to be >90%. Cells were inoculated into a sterile 6-well plate with 2×10^6 cells per well, replenished with 1640 complete medium to 1998 μL, and the 6-well plate was incubated in a constant temperature incubator at 37° C. and 5% CO2.
The 6-well plate was taken out, and the cells were normal under microscope. In an ultra-clean bench, 2 μL of each of the prepared gradient diluted 1000× stock solution was added to the 6-well plate inoculated with cells, and the 6-well plate was gently shaken to distribute the compounds evenly.
The 6-well plate was incubated statically in a constant temperature incubator at 37° C., 5% CO2 for 4 h;
After the cells were cultured statically for 4 hours, the culture medium was collected, and centrifuged at 8000 rpm for 3 minutes. The cells were collected in a 1.5 mL EP tube. The supernatant was discarded, and the total protein was extracted;
Cells from each group were collected into 1.5 ml EP tubes and a certain volume of Lysis Buffer (RIPA:protease/phosphatase inhibitor=100:1) was added (˜66 μL per 2×10^6 cells, depending on the cell amount). After adding Lysis Buffer, the EP tubes were placed on ice quickly and vortexed using a vortexer to fully lyse the cells. Be careful not to vortex for too long, and quickly place the sample tube on ice to lysis, shaking every 10 min for three times. At the end of the lysis time, the EP tubes were centrifuged at 12000 rpm for 10 min in a pre-cooled centrifuge at 4° C. After centrifugation, the supernatant was transferred to new 1.5 ml EP tubes which were labeled.
Using the BCA Protein Concentration Assay Kit, protein quantification of the sample lysis supernatant was performed according to the kit instructions. After the protein concentration was determined, the lysis supernatant with the lowest concentration was used as the reference, and the rest of the lysis supernatants were diluted to that concentration using Lysis Buffer in a volume calculated according to the BCA standard curve. To the diluted lysis supernatant, the corresponding volume of 5× loading Buffer was added. The diluted solution was heated in a metal bath at 95° C. for 10 min, then placed on ice to be cooled, and stored in a refrigerator at −20° C.
The glass plates used for making glue were cleaned, and two glass plates were aligned the bottoms, put into the bracket, and fixed with clips. The separation gel according to the 10% separation gel formula was prepared, mixed well and then added to the glass plate. The addition was stopped until the separation gel reached about ¾ of the glass plate and the glue was pressed with 75% ethanol. After 90 minutes, the separation gel was solidified. The 75% ethanol was poured out. Filter paper was used to absorb the remaining ethanol solution on the glass plate. A 5% stacking gel was prepared, mixed evenly and added to the glass plate. Then a spiking comb was inserted. After 60 minutes, the glue was made.
The gel plate was fixed in an electrophoresis tank, and the inner tank was filled with 1× electrophoresis solution, while in the outer tank the electrophoresis solution was over the metal wire. The spiking comb was removed, the protein samples of Ba/F3-FL-EGFR (L858R/T790M/C797S) and Ba/F3-FL-EGFR (del19-E746-A750/T790M/C797S) cells were sampled 25 μg, and Protein Ladder was then added. Turning on the power supply, electrophoresis with a constant voltage of 70 V lasted for 30 min, electrophoresis was continued at constant voltage 86 V for 1 h 20 min until the bromophenol blue indicator band reached the bottom and electrophoresis was stopped. […]
For orientation: Immunoblotting shows a protein as a band on a membrane.

The target in experiment [2] is Ba/F3-FL-EGFR (L858R/T790M/C797S) (Homo sapiens, UniProt P00533, T790M/C797S/L858R, cells depend on it). The experiment can be described thus: Cell proliferation inhibition, CellTiter-Glo. The class given is cell-based. The method, then:
AdenosineTri-Phosphate (ATP) is an energy carrier shared by various life activities in nature, and is the smallest unit of energy storage and transfer. The CellTiter-Glo™ living cell assay kit uses luciferase as a detector, and luciferase requires the participation of ATP in the process of luminescence. CellTiter-Glo™ reagent is added to a cell culture medium, and the luminescence value is measured. The light signal is directly proportional to the amount of ATP in the system, and ATP is positively correlated with the number of living cells. Therefore, cell proliferation can be detected by detecting ATP content with the CellTiter-Glo kit. In this assay, the cell lines were Ba/F3-FL-EGFR (L858R/T790M/C797S), Ba/F3-FL-EGFR (WT), Ba/F3-FL-EGFR (L858R), Ba/F3-FL-EGFR (del19-S752-I759), Ba/F3-FL-EGFR (del19-E746-A750/T790M/C797S), Ba/F3-FL-EGFR (L858R/T790M), Ba/F3-FL-EGFR (del19-E746-A750/T790M), Ba/F3-TEL-EGFR (L858R/C797S), Ba/F3-FL-EGFR (del19-E746-A750/C797S) stably transfected cell lines.
The cell lines were cultured in an incubator at 37° C. and 5% CO2. The cells were periodically passaged, and cells in logarithmic growth phase were taken for plating.
a) DMSO was used to prepare a 10 mM solution of the compound to be tested, and then the compound to be tested was diluted to 0.3 or 1 mM with DMSO.
b) Preparation of 1000× compound storage plate (tube): DMSO was used to dilute by 3-fold gradient from the highest concentration to the lowest concentration, with a total of 9 concentrations.
c) Preparation of 20× compound working solution: 49 μL of cell culture medium was added to a flat-bottomed 96-well transparent drug plate, and 1 μL of compound was pipetted from the 1000× compound storage plate to the cell culture medium of the 96-well transparent drug plate. 1 μL of DMSO was added to the vehicle control. After adding compound or DMSO, the well content was mixed to uniform by aspiration and expelling with pipette.
a) Cells were stained with trypan blue and viable cells were counted. The cell viability rate was required to be above 90%.
b) 95 μL of cell suspension (2000 cells/well) was added to each well of the compound detection cell plate, and culture medium without cells (containing 0.1% DMSO) was added to the Min control well.
c) Dosing in the compound detection cell plate: 5 μL of 20× compound working solution was added to the cell culture plate. 5 μL of DMSO-cell culture mixture was added to the Max control. The final concentration of DMSO was 0.1%.
d) The culture plate was incubated in an incubator at 37° C., 5% CO2 for 72 hours.
Cell proliferation inhibition rate (Inhibition Rate) data were processed using the following formula:
Inhibition Rate (Inh %)=100−(RLUDrug−RLUMin)/(RLUMax−RLUMin)*100%.
The inhibition rates corresponding to different concentrations of compounds were calculated, and then GraphPad Prism software was used to draw the inhibition rate curve and the IC50 value was calculated.
For orientation: ATP-based viability assays read luminescence as a measure of living cells.

Where [3] appears, read: 72 hours, read-out: Cell half-maximal inhibition concentration IC50 Ba/F3-FL-EGFR (L858R/T790M/C797S).

Ba/F3-FL-EGFR (L858R/T790M/C797S), sequence (P00533 whole entry T790M/C797S/L858R): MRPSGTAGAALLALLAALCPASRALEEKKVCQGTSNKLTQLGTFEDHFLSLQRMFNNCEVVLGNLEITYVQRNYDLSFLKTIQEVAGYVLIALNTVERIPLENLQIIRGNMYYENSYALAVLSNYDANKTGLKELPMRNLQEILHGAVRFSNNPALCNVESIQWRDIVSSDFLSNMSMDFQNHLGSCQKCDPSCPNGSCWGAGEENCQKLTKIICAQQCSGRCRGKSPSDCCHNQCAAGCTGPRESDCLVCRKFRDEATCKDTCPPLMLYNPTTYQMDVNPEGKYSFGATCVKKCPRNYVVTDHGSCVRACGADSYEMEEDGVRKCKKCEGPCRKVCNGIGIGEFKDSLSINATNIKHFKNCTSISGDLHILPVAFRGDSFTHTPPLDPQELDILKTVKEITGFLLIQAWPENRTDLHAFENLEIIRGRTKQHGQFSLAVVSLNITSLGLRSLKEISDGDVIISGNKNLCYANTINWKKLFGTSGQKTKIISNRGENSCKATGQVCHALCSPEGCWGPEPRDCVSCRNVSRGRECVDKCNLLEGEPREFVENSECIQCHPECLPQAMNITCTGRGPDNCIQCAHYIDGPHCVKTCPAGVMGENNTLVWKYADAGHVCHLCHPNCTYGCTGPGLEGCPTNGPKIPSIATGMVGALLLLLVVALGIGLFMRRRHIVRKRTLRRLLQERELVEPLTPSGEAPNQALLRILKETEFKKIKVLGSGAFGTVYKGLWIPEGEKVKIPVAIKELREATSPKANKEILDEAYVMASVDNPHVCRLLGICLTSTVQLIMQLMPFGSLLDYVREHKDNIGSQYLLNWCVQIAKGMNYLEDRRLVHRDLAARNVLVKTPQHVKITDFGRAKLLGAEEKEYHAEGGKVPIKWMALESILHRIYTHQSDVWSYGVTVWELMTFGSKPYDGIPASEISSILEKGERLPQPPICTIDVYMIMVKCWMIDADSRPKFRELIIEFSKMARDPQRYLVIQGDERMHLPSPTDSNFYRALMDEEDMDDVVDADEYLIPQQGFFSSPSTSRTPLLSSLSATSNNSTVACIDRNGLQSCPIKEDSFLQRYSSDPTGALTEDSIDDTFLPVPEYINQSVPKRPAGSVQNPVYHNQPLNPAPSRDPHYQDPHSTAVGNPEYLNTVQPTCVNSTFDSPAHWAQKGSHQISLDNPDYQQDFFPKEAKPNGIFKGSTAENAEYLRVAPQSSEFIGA

`Cc1cc2cc(n1)-c1cnn(C)c1OCCC[C@@H](C)CN1/C(=N/C2=O)Nc2ccc(N=S(C)(C)=O)cc21` [WX-006]: the IC50 in experiment [1] was 3.4 nM.

Consider `Cc1cc2cc(n1)-c1cnn(C)c1OC[C@H]1CC[C@H](C1)CN1/C(=N/C2=O)Nc2ccc(N=S(C)(C)=O)cc21` (single isomer, unassigned) [WX-027A], for which, in experiment [1], the IC50 was 2.1 nM. In addition, in experiment [2] (setting [3]), the GI50 amounted to 8.6 nM.

With `Cc1cc2cc(n1)-c1cnn(C)c1OCCC[C@@H](C)CN1/C(=N/C2=O)Nc2ccc(N=S3(=O)CCCC3)cc21` [WX-010 (trifluoroacetate)], in experiment [1], the IC50 is 2.3 nM. Besides, in experiment [2] (setting [3]), the GI50 came to 2.8 nM.

With `Cc1cc2cc(n1)-c1cnn(C)c1OCCC[C@@H](C)CN1/C(=N/C2=O)Nc2ccc(N=S(C)(C)=O)c(Cl)c21` [WX-019], the GI50 in experiment [2] (setting [3]) was found to be 5.7 nM.

Take `Cc1cc2cc(n1)-c1cnn(C)c1OCCC[C@@H](C)CN1/C(=N/C2=O)Nc2ccc(N=S3(=O)CCOCC3)cc21` [WX-013]: the IC50 in experiment [1] is 2.9 nM. The GI50 in experiment [2] (read-out: Cell half-maximal inhibition concentration IC50 Ba/F3-FL-EGFR (L858R/T790M/C797S), 72 hours) came out at 4.3 nM.
